Reference: US20230123334A1, “AMINO LIPID COMPOUND, PREPARATION METHOD THEREFOR, AND APPLICATION THEREOF” (SHENZHEN SHENXIN BIOTECHNOLOGY CO., LTD., priority 2020, published 2023)

What follows are compounds tested on HEK293 cells (assay: Preliminary screening as DNA vectors, GFP transfection of HEK293 cells). Conditions: amino lipid/DOPE liposome with 75 ng plasmid DNA (psin-EGFP-IRES-Puro); number of GFP-expressing cells divided by total nuclei (Hoechst).
Type: cell-based
Procedure, shortened: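 Lipid + DOPE liposomes (NaOAc, pH 5.6) complexed w/ 75 ng psin-EGFP-IRES-Puro, 30 min RT; added to 3-5×10^4 HEK293/well, 37° C. Hoechst 0.2 μg/mL at 20-24 h, imaged after further 20-24 h. Efficiency = GFP+ cells / total nuclei.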

Compound | Absolute DNA transfection efficiency in HEK293 cells [%]
CCCCCCCCSc1nc(NCCCCCCC)nc(NCCN(CC)CC)n1 [S8N7 D7] | 1.4
CCCCCCCCSc1nc(NCCCCCCC)nc(NCCCN2CCOCC2)n1 [S8N7 D8] | 0.8
CCCCCCCCSc1nc(NCCCCCCC)nc(NCCCN2CCN(C)CC2)n1 [S8N7 D9] | 3.6
CCCCCCCCSc1nc(NCCCCCCC)nc(NCC2CCN(C)CC2)n1 [S8N7 D10] | 1.2
CCCCCCCCNc1nc(NCCN(C)C)nc(SCCCCCCCC)n1 [S8N8 D1] | 9.3
CCCCCCCCNc1nc(NCCN2CCOCC2)nc(SCCCCCCCC)n1 [S8N8 D2] | 1.5
CCCCCCCCNc1nc(NCCN2CCCC2)nc(SCCCCCCCC)n1 [S8N8 D3] | 8.5
CCCCCCCCNc1nc(NCCN2CCCCC2)nc(SCCCCCCCC)n1 [S8N8 D4] | 2.9
CCCCCCCCNc1nc(NCCN2CCN(C)CC2)nc(SCCCCCCCC)n1 [S8N8 D5] | 9.1
CCCCCCCCNc1nc(NCCCN(C)C)nc(SCCCCCCCC)n1 [S8N8 D6] | 8.7
CCCCCCCCNc1nc(NCCN(CC)CC)nc(SCCCCCCCC)n1 [S8N8 D7] | 5.2
CCCCCCCCNc1nc(NCCCN2CCOCC2)nc(SCCCCCCCC)n1 [S8N8 D8] | 2.9
CCCCCCCCNc1nc(NCCCN2CCN(C)CC2)nc(SCCCCCCCC)n1 [S8N8 D9] | 7.4
CCCCCCCCNc1nc(NCC2CCN(C)CC2)nc(SCCCCCCCC)n1 [S8N8 D10] | 6.1
CCCCCCCCCNc1nc(NCCN(C)C)nc(SCCCCCCCC)n1 [S8N9 D1] | 33.6
CCCCCCCCCNc1nc(NCCN2CCOCC2)nc(SCCCCCCCC)n1 [S8N9 D2] | 10.7
CCCCCCCCCNc1nc(NCCN2CCCC2)nc(SCCCCCCCC)n1 [S8N9 D3] | 32.7
CCCCCCCCCNc1nc(NCCN2CCCCC2)nc(SCCCCCCCC)n1 [S8N9 D4] | 15.5
CCCCCCCCCNc1nc(NCCN2CCN(C)CC2)nc(SCCCCCCCC)n1 [S8N9 D5] | 35.9
CCCCCCCCCNc1nc(NCCCN(C)C)nc(SCCCCCCCC)n1 [S8N9 D6] | 33.3
CCCCCCCCCNc1nc(NCCN(CC)CC)nc(SCCCCCCCC)n1 [S8N9 D7] | 26.0
CCCCCCCCCNc1nc(NCCCN2CCOCC2)nc(SCCCCCCCC)n1 [S8N9 D8] | 14.8
CCCCCCCCCNc1nc(NCCCN2CCN(C)CC2)nc(SCCCCCCCC)n1 [S8N9 D9] | 32.1
CCCCCCCCCNc1nc(NCC2CCN(C)CC2)nc(SCCCCCCCC)n1 [S8N9 D10] | 36.3
CCCCCCCCCCCNc1nc(NCCN(C)C)nc(SCCCCCCCC)n1 [S8N11 D1] | 42.2

Compound | Absolute DNA transfection efficiency in HEK293 cells [%]
CCCCCCCCCCCNc1nc(NCCN2CCOCC2)nc(SCCCCCCCC)n1 [S8N11 D2] | 25.4
CCCCCCCCCCCNc1nc(NCCN2CCCC2)nc(SCCCCCCCC)n1 [S8N11 D3] | 52.0
CCCCCCCCCCCNc1nc(NCCN2CCCCC2)nc(SCCCCCCCC)n1 [S8N11 D4] | 14.3
CCCCCCCCCCCNc1nc(NCCN2CCN(C)CC2)nc(SCCCCCCCC)n1 [S8N11 D5] | 52.7
CCCCCCCCCCCNc1nc(NCCCN(C)C)nc(SCCCCCCCC)n1 [S8N11 D6] | 99.4
CCCCCCCCCCCNc1nc(NCCN(CC)CC)nc(SCCCCCCCC)n1 [S8N11 D7] | 24.6
CCCCCCCCCCCNc1nc(NCCCN2CCOCC2)nc(SCCCCCCCC)n1 [S8N11 D8] | 13.7
CCCCCCCCCCCNc1nc(NCCCN2CCN(C)CC2)nc(SCCCCCCCC)n1 [S8N11 D9] | 63.6
CCCCCCCCCCCNc1nc(NCC2CCN(C)CC2)nc(SCCCCCCCC)n1 [S8N11 D10] | 46.3
CCCCCCCCCCCCNc1nc(NCCN(C)C)nc(SCCCCCCCC)n1 [S8N12 D1] | 22.1
CCCCCCCCCCCCNc1nc(NCCN2CCOCC2)nc(SCCCCCCCC)n1 [S8N12 D2] | 38.1
CCCCCCCCCCCCNc1nc(NCCN2CCCC2)nc(SCCCCCCCC)n1 [S8N12 D3] | 17.8
CCCCCCCCCCCCNc1nc(NCCN2CCCCC2)nc(SCCCCCCCC)n1 [S8N12 D4] | 7.6
CCCCCCCCCCCCNc1nc(NCCN2CCN(C)CC2)nc(SCCCCCCCC)n1 [S8N12 D5] | 41.7
CCCCCCCCCCCCNc1nc(NCCCN(C)C)nc(SCCCCCCCC)n1 [S8N12 D6] | 78.3
CCCCCCCCCCCCNc1nc(NCCN(CC)CC)nc(SCCCCCCCC)n1 [S8N12 D7] | 9.5
CCCCCCCCCCCCNc1nc(NCCCN2CCOCC2)nc(SCCCCCCCC)n1 [S8N12 D8] | 16.1
CCCCCCCCCCCCNc1nc(NCCCN2CCN(C)CC2)nc(SCCCCCCCC)n1 [S8N12 D9] | 48.3
CCCCCCCCCCCCNc1nc(NCC2CCN(C)CC2)nc(SCCCCCCCC)n1 [S8N12 D10] | 44.5
CCCCCCCCCCCCCNc1nc(NCCN(C)C)nc(SCCCCCCCC)n1 [S8N13 D1] | 18.3
CCCCCCCCCCCCCNc1nc(NCCN2CCOCC2)nc(SCCCCCCCC)n1 [S8N13 D2] | 19.7
CCCCCCCCCCCCCNc1nc(NCCN2CCCC2)nc(SCCCCCCCC)n1 [S8N13 D3] | 30.5
CCCCCCCCCCCCCNc1nc(NCCN2CCCCC2)nc(SCCCCCCCC)n1 [S8N13 D4] | 3.8
CCCCCCCCCCCCCNc1nc(NCCN2CCN(C)CC2)nc(SCCCCCCCC)n1 [S8N13 D5] | 28.3
CCCCCCCCCCCCCNc1nc(NCCCN(C)C)nc(SCCCCCCCC)n1 [S8N13 D6] | 55.1

Compound | Absolute DNA transfection efficiency in HEK293 cells [%]
CCCCCCCCCCCCCNc1nc(NCCN(CC)CC)nc(SCCCCCCCC)n1 [S8N13 D7] | 8.9
CCCCCCCCCCCCCNc1nc(NCCCN2CCOCC2)nc(SCCCCCCCC)n1 [S8N13 D8] | 13.3
CCCCCCCCCCCCCNc1nc(NCCCN2CCN(C)CC2)nc(SCCCCCCCC)n1 [S8N13 D9] | 27.9
CCCCCCCCCCCCCNc1nc(NCC2CCN(C)CC2)nc(SCCCCCCCC)n1 [S8N13 D10] | 18.7
CCCCCCCCCCCCCCCNc1nc(NCCN(C)C)nc(SCCCCCCCC)n1 [S8N15 D1] | 8.0
CCCCCCCCCCCCCCCNc1nc(NCCN2CCOCC2)nc(SCCCCCCCC)n1 [S8N15 D2] | 4.9
CCCCCCCCCCCCCCCNc1nc(NCCN2CCCC2)nc(SCCCCCCCC)n1 [S8N15 D3] | 9.9
CCCCCCCCCCCCCCCNc1nc(NCCN2CCCCC2)nc(SCCCCCCCC)n1 [S8N15 D4] | 0.9
CCCCCCCCCCCCCCCNc1nc(NCCN2CCN(C)CC2)nc(SCCCCCCCC)n1 [S8N15 D5] | 10.4
CCCCCCCCCCCCCCCNc1nc(NCCCN(C)C)nc(SCCCCCCCC)n1 [S8N15 D6] | 23.7
CCCCCCCCCCCCCCCNc1nc(NCCN(CC)CC)nc(SCCCCCCCC)n1 [S8N15 D7] | 2.2
CCCCCCCCCCCCCCCNc1nc(NCCCN2CCOCC2)nc(SCCCCCCCC)n1 [S8N15 D8] | 7.7
CCCCCCCCCCCCCCCNc1nc(NCCCN2CCN(C)CC2)nc(SCCCCCCCC)n1 [S8N15 D9] | 12.4
CCCCCCCCCCCCCCCNc1nc(NCC2CCN(C)CC2)nc(SCCCCCCCC)n1 [S8N15 D10] | 22.6
CCCCCCCCCCCCCCCCNc1nc(NCCN(C)C)nc(SCCCCCCCC)n1 [S8N16 D1] | 7.1
CCCCCCCCCCCCCCCCNc1nc(NCCN2CCOCC2)nc(SCCCCCCCC)n1 [S8N16 D2] | 2.9
CCCCCCCCCCCCCCCCNc1nc(NCCN2CCCC2)nc(SCCCCCCCC)n1 [S8N16 D3] | 3.3
CCCCCCCCCCCCCCCCNc1nc(NCCN2CCCCC2)nc(SCCCCCCCC)n1 [S8N16 D4] | 1.0
CCCCCCCCCCCCCCCCNc1nc(NCCN2CCN(C)CC2)nc(SCCCCCCCC)n1 [S8N16 D5] | 14.3
CCCCCCCCCCCCCCCCNc1nc(NCCCN(C)C)nc(SCCCCCCCC)n1 [S8N16 D6] | 3.7
CCCCCCCCCCCCCCCCNc1nc(NCCN(CC)CC)nc(SCCCCCCCC)n1 [S8N16 D7] | 5.2
CCCCCCCCCCCCCCCCNc1nc(NCCCN2CCOCC2)nc(SCCCCCCCC)n1 [S8N16 D8] | 8.2
CCCCCCCCCCCCCCCCNc1nc(NCCCN2CCN(C)CC2)nc(SCCCCCCCC)n1 [S8N16 D9] | 9.7
CCCCCCCCCCCCCCCCNc1nc(NCC2CCN(C)CC2)nc(SCCCCCCCC)n1 [S8N16 D10] | 13.4
CCCCCCCCCCCCCCCCCCNc1nc(NCCN(C)C)nc(SCCCCCCCC)n1 [S8N18 D1] | 4.8
